According to patent publication US20180148418A1, “AMIDO-SUBSTITUTED CYCLOHEXANE DERIVATIVES” (Bayer Pharma Aktiengesellschaft, priority 2015, published 2018):

Assays:
TNKS2 = molecular target: T1, TNKS2 (Homo sapiens, UniProt Q9H2K2); test: TNKS2 Assay B (auto-parsylation, [3H]-NAD+ SPA); format: biochemical; settings: 6 nM TNKS2, auto-parsylation, over night at room temperature
T1 construct: purchased BPS Bioscience, San Diego, USA 80572 (TNKS2 Histone Ribosylation Assay Kit)
T1 sequence (Q9H2K2 1-1166): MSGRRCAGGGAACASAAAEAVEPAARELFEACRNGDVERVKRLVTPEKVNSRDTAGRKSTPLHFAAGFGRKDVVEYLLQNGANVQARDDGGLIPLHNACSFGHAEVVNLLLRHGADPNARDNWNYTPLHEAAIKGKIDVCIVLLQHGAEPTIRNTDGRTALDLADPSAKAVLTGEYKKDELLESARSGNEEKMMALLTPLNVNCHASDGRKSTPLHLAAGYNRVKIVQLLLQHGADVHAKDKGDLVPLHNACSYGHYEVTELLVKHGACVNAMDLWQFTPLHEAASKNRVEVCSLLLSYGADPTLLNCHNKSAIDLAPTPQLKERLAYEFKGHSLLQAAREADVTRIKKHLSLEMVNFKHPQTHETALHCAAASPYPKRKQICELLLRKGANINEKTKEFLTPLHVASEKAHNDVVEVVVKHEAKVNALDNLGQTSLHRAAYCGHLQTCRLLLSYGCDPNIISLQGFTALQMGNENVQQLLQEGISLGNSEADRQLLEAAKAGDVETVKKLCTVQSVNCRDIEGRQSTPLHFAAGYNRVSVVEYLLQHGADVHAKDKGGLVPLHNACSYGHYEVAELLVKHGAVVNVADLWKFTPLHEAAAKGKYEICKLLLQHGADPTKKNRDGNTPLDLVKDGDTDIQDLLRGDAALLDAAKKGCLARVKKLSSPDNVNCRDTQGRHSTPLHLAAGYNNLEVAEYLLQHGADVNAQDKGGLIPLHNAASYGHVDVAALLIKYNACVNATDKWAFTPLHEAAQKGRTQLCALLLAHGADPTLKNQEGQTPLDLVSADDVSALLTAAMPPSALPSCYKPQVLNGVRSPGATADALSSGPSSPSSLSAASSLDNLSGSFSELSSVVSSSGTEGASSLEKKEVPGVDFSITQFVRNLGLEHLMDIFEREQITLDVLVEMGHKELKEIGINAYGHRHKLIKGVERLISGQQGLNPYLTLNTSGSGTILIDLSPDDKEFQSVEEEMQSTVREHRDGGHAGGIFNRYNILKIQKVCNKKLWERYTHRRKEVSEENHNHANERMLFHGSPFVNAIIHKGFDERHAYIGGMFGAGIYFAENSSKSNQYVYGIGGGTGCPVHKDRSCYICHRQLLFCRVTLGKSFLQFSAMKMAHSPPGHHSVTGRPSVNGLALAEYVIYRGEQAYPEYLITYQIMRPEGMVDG

[1] = tested on: wildtype Wnt signaling cascade; test: HEK293 TOP assay (Super TopFlash luciferase reporter, Wnt-3a stimulated); format: cell-based; settings: Homo sapiens, HEK293, 16 h, HEK293 TOP reporter cells, Wnt3a at EC50, 16 hours
How it was run: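 HEK293 cells stably carrying Super TopFlash (TOP) run in parallel with FOP cells, 10000/well plated 24 h ahead, stimulated with recombinant human Wnt-3a. Compounds tested 50 μM to 15 nM in 3.16-fold steps in CAFTY buffer pH 7.4 with 2 mM Ca^2+ and 0.01% BSA; luciferase read-out.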

| Structure (SMILES) | IC50 (TNKS2) [nM] | IC50 [1] [nM] |
| --- | --- | --- |
| O=C(NCC1CCCO1)c1nc[nH]c1C(=O)N[C@H]1CC[C@H](C(=O)Nc2cc(F)c(F)cc2Cl)CC1 (stereo partly drawn) [Example 86, N^5-{trans-4-[(2-chloro-4,5-difluorophenyl)carbamoyl]cyclohexyl}-N^4-(tetrahydrofuran-2-ylmethyl)-1H-imidazole-4,5-dicarboxamide] | 22 | 94 |
| COCC(C)NC(=O)c1nc[nH]c1C(=O)N[C@H]1CC[C@H](C(=O)Nc2cc(F)c(F)cc2Cl)CC1 (stereo partly drawn) [Example 87, N^5-{trans-4-[(2-chloro-4,5-difluorophenyl)carbamoyl]cyclohexyl}-N^4-(1-methoxypropan-2-yl)-1H-imidazole-4,5-dicarboxamide] | 51 | 60 |
| CNC(=O)c1nc[nH]c1C(=O)N[C@H]1CC[C@H](C(=O)Nc2cc(N3CCOCC3)ccc2Cl)CC1 [Example 88, N^5-(trans-4-{[2-chloro-5-(morpholin-4-yl)phenyl]carbamoyl}cyclohexyl)-N^4-methyl-1H-imidazole-4,5-dicarboxamide] | 7100 | 2400 |
| O=C(NCC1CCCO1)c1nc[nH]c1C(=O)N[C@H]1CC[C@H](C(=O)Nc2cc(N3CCOCC3)ccc2Cl)CC1 (stereo partly drawn) [Example 89, N^5-(trans-4-{[2-chloro-5-(morpholin-4-yl)phenyl]carbamoyl}cyclohexyl)-N^4-(tetrahydrofuran-2-ylmethyl)-1H-imidazole-4,5-dicarboxamide] | 1600 | 1200 |
| COC(C)(C)CNC(=O)c1nc[nH]c1C(=O)N[C@H]1CC[C@H](C(=O)Nc2cc(N3CCOCC3)ccc2Cl)CC1 [Example 90, N^5-(trans-4-{[2-chloro-5-(morpholin-4-yl)phenyl]carbamoyl}cyclohexyl)-N^4-(2-methoxy-2-methylpropyl)-1H-imidazole-4,5-dicarboxamide] | 2700 | 1900 |
| CC(C)(O)CNC(=O)c1nc[nH]c1C(=O)N[C@H]1CC[C@@]2(CCN(c3cccc(Cl)c3)C2=O)CC1 [Example 284, N^5-[(trans)-2-(3-chlorophenyl)-1-oxo-2-azaspiro[4.5]dec-8-yl]-N^4-(2-hydroxy-2-methylpropyl)-1H-imidazole-4,5-dicarboxamide] | 220 | 100 |
| COCC(C)NC(=O)c1nc[nH]c1C(=O)N[C@H]1CC[C@@]2(CCN(c3cccc(Cl)c3)C2=O)CC1 (stereo partly drawn) [Example 285, N^5-[(trans)-2-(3-chlorophenyl)-1-oxo-2-azaspiro[4.5]dec-8-yl]-N^4-(1-methoxypropan-2-yl)-1H-imidazole-4,5-dicarboxamide] | 380 | 92 |
| O=C(N[C@H]1CC[C@@]2(CCN(c3cccc(Cl)c3)C2=O)CC1)c1[nH]cnc1C(=O)N1CCOCC1 [Example 286, N-[(trans)-2-(3-chlorophenyl)-1-oxo-2-azaspiro[4.5]dec-8-yl]-4-(morpholin-4-ylcarbonyl)-1H-imidazole-5-carboxamide] | 4400 | 28 |
| CNC(=O)c1nc[nH]c1C(=O)N[C@H]1CC[C@@]2(CCN(c3cc(C)c(F)cc3Cl)C2=O)CC1 [Example 288, N^5-[(trans)-2-(2-chloro-4-fluoro-5-methylphenyl)-1-oxo-2-azaspiro[4.5]dec-8-yl]-N^4-methyl-1H-imidazole-4,5-dicarboxamide] | 2.8 | 1.4 |
| CCNC(=O)c1nc[nH]c1C(=O)N[C@H]1CC[C@@]2(CCN(c3cc(C)c(F)cc3Cl)C2=O)CC1 [Example 289, N^5-[(trans)-2-(2-chloro-4-fluoro-5-methylphenyl)-1-oxo-2-azaspiro[4.5]dec-8-yl]-N^4-ethyl-1H-imidazole-4,5-dicarboxamide] | 2.9 | 1.8 |
| Cc1cc(N2CC[C@]3(CC[C@@H](NC(=O)c4[nH]cnc4C(=O)NCCN4CCC(C)CC4)CC3)C2=O)c(Cl)cc1F [Example 290, N^5-[(trans)-2-(2-chloro-4-fluoro-5-methylphenyl)-1-oxo-2-azaspiro[4.5]dec-8-yl]-N^4-[2-(4-methylpiperidin-1-yl)ethyl]-1H-imidazole-4,5-dicarboxamide] | 1.7 | 4.7 |
| Cc1cc(N2CC[C@]3(CC[C@@H](NC(=O)c4[nH]cnc4C(=O)NCC(F)(F)F)CC3)C2=O)c(Cl)cc1F [Example 297, N^5-[(trans)-2-(2-chloro-4-fluoro-5-methylphenyl)-1-oxo-2-azaspiro[4.5]dec-8-yl]-N^4-(2,2,2-trifluoroethyl)-1H-imidazole-4,5-dicarboxamide] | 7.6 | 6.9 |
| O=C(N[C@H]1CC[C@@]2(CCN(c3cc(F)c(F)cc3Cl)C2=O)CC1)c1cnc2cccnn12 [Example 298, N-[(trans)-2-(2-chloro-4,5-difluorophenyl)-1-oxo-2-azaspiro[4.5]dec-8-yl]imidazo[1,2-b]pyridazine-3-carboxamide] | 2 | 4.9 |
| Cc1cc(C)n2ncc(C(=O)N[C@H]3CC[C@@]4(CCN(c5cc(F)c(F)cc5Cl)C4=O)CC3)c2n1 [Example 299, N-[(trans)-2-(2-chloro-4,5-difluorophenyl)-1-oxo-2-azaspiro[4.5]dec-8-yl]-5,7-dimethylpyrazolo[1,5-a]pyrimidine-3-carboxamide] | 2 | 0.9 |
| Cc1cc(N2CCC[C@]3(CC[C@@H](NC(=O)c4cnn5cccnc45)CC3)C2=O)c(Cl)cc1F [Example 300, N-[(trans)-2-(2-chloro-4-fluoro-5-methylphenyl)-1-oxo-2-azaspiro[5.5]undec-9-yl]pyrazolo[1,5-a]pyrimidine-3-carboxamide] | 45 | 18 |
| Cc1cc(N2CCC[C@]3(CC[C@@H](NC(=O)c4cnc5cccnn45)CC3)C2=O)c(Cl)cc1F [Example 301, N-[(trans)-2-(2-chloro-4-fluoro-5-methylphenyl)-1-oxo-2-azaspiro[5.5]undec-9-yl]imidazo[1,2-b]pyridazine-3-carboxamide] | 80 | 28 |
| Cc1cc(C)n2ncc(C(=O)N[C@H]3CC[C@@]4(CCCN(c5cc(C)c(F)cc5Cl)C4=O)CC3)c2n1 [Example 302, N-[(trans)-2-(2-chloro-4-fluoro-5-methylphenyl)-1-oxo-2-azaspiro[5.5]undec-9-yl]-5,7-dimethylpyrazolo[1,5-a]pyrimidine-3-carboxamide] | 69 | 42 |
| COCCNC(=O)c1nc[nH]c1C(=O)N[C@H]1CC[C@@]2(CCN(c3cc(C)c(F)cc3Cl)C2=O)CC1 [Example 334, N^5-[(trans)-2-(2-chloro-4-fluoro-5-methylphenyl)-1-oxo-2-azaspiro[4.5]dec-8-yl]-N^4-(2-methoxyethyl)-1H-imidazole-4,5-dicarboxamide] | 4.9 | 9.5 |
| COC(=O)c1cc(C)nc2c(C(=O)N[C@H]3CC[C@H](C(=O)Nc4c(F)cc(F)cc4Cl)CC3)cnn12 [Example 351, methyl 3-({trans-4-[(2-chloro-4,6-difluorophenyl)carbamoyl]cyclohexyl}carbamoyl)-5-methylpyrazolo[1,5-a]pyrimidine-7-carboxylate] | 56 | 6700 |
| COC(=O)c1cc(C)nc2c(C(=O)N[C@H]3CC[C@H](C(=O)Nc4ccc(F)cc4Cl)CC3)cnn12 [Example 352, methyl 3-({trans-4-[(2-chloro-4-fluorophenyl)carbamoyl]cyclohexyl}carbamoyl)-5-methylpyrazolo[1,5-a]pyrimidine-7-carboxylate] | 120 | 7500 |
| Cc1c(C(C)(C)O)cnc2c(C(=O)N[C@H]3CC[C@H](C(=O)Nc4ccc(F)cc4Cl)CC3)cnn12 [Example 359, N-{trans-4-[(2-chloro-4-fluorophenyl)carbamoyl]cyclohexyl}-6-(2-hydroxypropan-2-yl)-7-methylpyrazolo[1,5-a]pyrimidine-3-carboxamide] | > 10000 | 4000 |
| O=C(N[C@H]1CC[C@H](C(=O)Nc2ccc(F)cc2Cl)CC1)c1cnc2ccc(O)nn12 [Example 360, N-{trans-4-[(2-chloro-4-fluorophenyl)carbamoyl]cyclohexyl}-6-hydroxyimidazo[1,2-b]pyridazine-3-carboxamide] | 1700 | 10000 |
